We go through 2 compounds from patent US12410141B2, “Anti-cancer spirocyclic-guanidine compounds and uses thereof” (The Johns Hopkins University, priority 2020, dated 2025).

For data set [1], the system named is SKOV3. Description: MTT cytotoxicity assay, SKOV3. Type of data set: cell-based. Conditions: SKOV3, ovarian, 72 hr, read-out: IC50, cell killing. On the procedure: (§1) All cell lines were obtained from the American Type Culture Collection (ATCC) and cultured in the specified medium supplemented with 10% fetal bovine serum, 100 IU/mL penicillin, and 100 μg/mL streptomycin at 37° C. in a humidified 5% CO2/95% air incubator. To assess drug cytotoxicity cells were seeded at 2,500 cells/well (10,000 cells/well for MM lines and primary cells) in 100 μL medium in 96-well plate. […]
(§2) It was examined whether the RPN13 inhibitor, RA475, was cytotoxic for cancer cell lines using the MTT assay.

Data set [2] is described as follows: Solubility compared with RA190. The format is physicochemical. Conditions: compared with prototypic RPN13 inhibitor RA190.
Data set [3] deals with Br23C. In words: MTT cytotoxicity assay, Br23C. Type of data set: cell-based. Conditions: glioblastoma multiforme, 72 hr, read-out: IC50, cell killing. The method, then:
as §1, §2
For orientation: Formazan colour is commonly taken as a measure of viable cells.

The test system of data set [4] is ID8-Vegf Defb29 cells stably expressing firefly luciferase in C57BL6 mice. In words: ID8-Luc syngeneic ovarian tumor model. Type of data set: in vivo, mouse. Conditions: female C57BL6 mice, 40 mg/Kg every 3 days, i.p. The method, then: Whereas vehicle treatment (n=7) increased tumor burden and ascites formation.
Briefly, female C57BL6 mice were injected (i.p.) with ID8-Vegf Defb29 cells stably expressing firefly luciferase (0.5×10^6 cells) in PBS (100 uL). After 72 hrs, mice were imaged for their basal luminescence levels using an IVIS200 imager. Mice with visible luminescence were randomized into two groups and treated with Vehicle (25% b-hydroxy propylcyclodextrin in water, 200 uL, every 3 days, i.p.) and RA475 (40 mg/Kg, every 3 days, i.p.). Mice were imaged every week to measure bioluminescence expressed by tumor after administration of luciferin (100 uL, 7.8 mg/mL).

Data set [5] is classed as in vitro ADME, murine and human. On the procedure:
Human and mouse liver microsomes and NADPH regenerating system solutions were purchased from Corning Life Sciences (Tewsbury, MA). Human and mouse K2EDTA was purchased from BioIVT (Westbury, NY). Metabolic studies in liver microsomes (0.125 mg/mL) were conducted in 1× phosphate buffered saline (pH 7.4), NADPH-generating system, and 10 μM of RA475 in a final volume of 250 μl. An incubation mixture with and without NADPH-generating system as well as a neat solution without microsomes and NADPH-generating system were prepared. RA475 was added at the same concentration level into human and mouse EDTA plasma. All reactions were initiated with the addition of RA475. Incubations were performed in glass tubes maintained at 37° C. in a shaker bath. At 0, 30, and 60 minutes, 10 μL aliquots were sampled from the reaction mixture and 0.5 mL of acetonitrile containing internal standard (Up284) was added to each samples. Samples were vortex-mixed and underwent centrifugation for 5 min at 1430×g. […] The column effluent was monitored using an AB Sciex 5500 triple quadrupole mass spectrometer. […] Results were assessed qualitatively comparing the average area ratio of RA475 at 0 hr to area ratio at 30 and 60 minutes for both mouse and human liver microsomes. RA475 was not analyzed for metabolites due to the concentration of RA475 not decreasing. […]

Values joined by “and” are separate entries in the source; they are usually repeats but may differ in a detail not shown here. Identical values can stand only once.

Broadly, the IC50 is the concentration at which inhibition is half-maximal. Turning to `Cl.Cl.N#Cc1ccc(/C=C2/C(=O)/C(=C/c3ccc(C#N)cc3)C23CCN(C(=N)N)CC3)cc1` [RA475], the 50% inhibitory concentration (IC50) in data set [1] is 300 nM and 190 nM. Moreover, the “solubility relative to RA190” value in data set [2] is “better solubility”. In addition, the IC50 in data set [3] came to 750 nM. Besides, in data set [4], the body weight entry was “no weight loss”, the “effect on tumor (bioluminescence)” value is listed as “regressed tumor” and the survival result is listed as “enhanced survival”.

Consider `N#Cc1ccc(/C=C2/C(=O)/C(=C/c3ccc(C#N)cc3)C23CCNCC3)cc1` [Up284, reference compound], for which the non-enzymatic degradation in data set [5] is roughly 50%. For the same compound, the “additional degradation by CYP450 activity” value in data set [5] (microsomes) is on record as 9-13%.
